Measured values as given in US20090005415A1, “1,2-Diarylimidazoles for Use as Cb1 Modulators” (priority 2005, published 2009).
Counter-ions that a name gives are not always drawn.

SMILES | melting point [°C]
Cc1c(C(=O)NN2CCCCC2)nc(-c2ccc(Cl)cc2Cl)n1-c1ccc(OCc2ccccc2)cc1 (as salt: hydrochloride) [Example 1, 1-(4-Benzyloxy-phenyl)-2-(2,4-dichloro-phenyl)-5-methyl-1H-imidazole-4-carboxylic acid piperidin-1-ylamide] | 195 to 198
Cc1c(C(=O)NN2CCCCC2)nc(-c2ccc(Cl)cc2Cl)n1-c1ccc(OS(=O)(=O)CCCC(F)(F)F)cc1 (as salt: hydrochloride) [Example 3, 4,4,4-Trifluoro-butane-1-sulfonic acid 4-[2-(2,4-dichloro-phenyl)-5-methyl-4-(piperidin-1-ylcarbamoyl)-imidazol-1-yl]-phenyl ester] | 113 to 118
Cc1c(C(=O)NN2CCCCC2)nc(-c2ccc(Cl)cc2Cl)n1-c1ccc(OS(=O)(=O)c2cccnc2)cc1 (as salt: hydrochloride) [Example 4, Pyridine-3-sulfonic acid 4-[2-(2,4-dichloro-phenyl)-5-methyl-4-(piperidin-1-ylcarbamoyl)-imidazol-1-yl]-phenyl ester] | 205 to 209
Cc1c(C(=O)NN2CCCCC2)nc(-c2ccc(Cl)cc2Cl)n1-c1ccc(OS(=O)(=O)c2ccc(Cl)s2)cc1 (as salt: hydrochloride) [Example 5, 5-Chloro-thiophene-2-sulfonic acid 4-[2-(2,4-dichloro-phenyl)-5-methyl-4-(piperidin-1-ylcarbamoyl)-imidazol-1-yl]-phenyl ester] | 112 to 118
Cc1c(C(=O)NN2CCCCC2)nc(-c2ccc(Cl)cc2Cl)n1-c1ccc(OS(=O)(=O)c2cccs2)cc1 (as salt: hydrochloride) [Example 7, Thiophene-2-sulfonic acid 4-[2-(2,4-dichloro-phenyl)-5-methyl-4-(piperidin-1-ylcarbamoyl)-imidazol-1-yl]phenyl ester] | 107 to 112

Results, then the compound that gave them:

melting point [°C] | SMILES
94 to 101 | CCS(=O)(=O)Oc1ccc(-n2c(-c3ccc(Cl)cc3Cl)nc(C(=O)NN3CCCCC3)c2C)cc1 (as salt: hydrochloride) [Example 2, Ethanesulfonic acid 4-[2-(2,4-dichloro-phenyl)-5-methyl-4-(piperidin-1-ylcarbamoyl)-imidazol-1-yl]-phenyl ester]
152 to 156 | Cc1c(C(=O)NN2CCCCC2)nc(-c2ccc(Cl)cc2Cl)n1-c1ccc(OS(=O)(=O)CCC(C)(C)C)cc1 (as salt: hydrochloride) [Example 6, 3,3-Dimethyl-butane-1-sulfonic acid 4-[2-(2,4-dichloro-phenyl)-5-methyl-4-(piperidin-1-ylcarbamoyl)-imidazol-1-yl]-phenyl ester]
183 to 186 | Cc1c(C(=O)NN2CCCCC2)nc(-c2ccc(Cl)cc2Cl)n1-c1ccc(OS(=O)(=O)CCC(F)(F)F)cc1 (as salt: hydrochloride) [Example 8, 3,3,3-Trifluoro-propane-1-sulfonic acid 4-[2-(2,4-dichloro-phenyl)-5-methyl-4-(piperidin-1-ylcarbamoyl)-imidazol-1-yl]-phenyl ester]
126 to 133 | CCCS(=O)(=O)Oc1ccc(-n2c(-c3ccc(Cl)cc3Cl)nc(C(=O)NN3CCCCC3)c2C)cc1 (as salt: hydrochloride) [Example 9, Propane-1-sulfonic acid 4-[2-(2,4-dichloro-phenyl)-5-methyl-4-(piperidin-1-ylcarbamoyl)-imidazol-1-yl]-phenyl ester]
